Source: the NIST ThermoML archive (doi:10.1016/j.jct.2005.07.011)

Experiment: excess molar enthalpy (molar enthalpy of mixing); xn = mol fraction of the nth substance listed
Details: Liquid, Flow calorimetry

COC(=O)OC [dimethyl carbonate] + CCCCO
Details	excess molar enthalpy [kcal/mol]
298.15 K, 1000 kPa, x1 = 0.05	0.127
298.15 K, 1000 kPa, x1 = 0.1	0.232
298.15 K, 1000 kPa, x1 = 0.15	0.317
298.15 K, 1000 kPa, x1 = 0.2	0.383
298.15 K, 1000 kPa, x1 = 0.25	0.435
298.15 K, 1000 kPa, x1 = 0.3	0.4733
298.15 K, 1000 kPa, x1 = 0.35	0.5011
298.15 K, 1000 kPa, x1 = 0.4	0.5163
298.15 K, 1000 kPa, x1 = 0.45	0.5253
298.15 K, 1000 kPa, x1 = 0.5	0.5258
298.15 K, 1000 kPa, x1 = 0.55	0.5155
298.15 K, 1000 kPa, x1 = 0.6	0.4945
298.15 K, 1000 kPa, x1 = 0.65	0.4683
298.15 K, 1000 kPa, x1 = 0.7	0.4353
298.15 K, 1000 kPa, x1 = 0.75	0.3916
298.15 K, 1000 kPa, x1 = 0.8	0.3364
298.15 K, 1000 kPa, x1 = 0.85	0.2695
298.15 K, 1000 kPa, x1 = 0.9	0.1907
298.15 K, 1000 kPa, x1 = 0.95	0.09904
313.15 K, 100 kPa, x1 = 0.049	0.125
313.15 K, 100 kPa, x1 = 0.099	0.235
313.15 K, 100 kPa, x1 = 0.149	0.329
313.15 K, 100 kPa, x1 = 0.199	0.404
313.15 K, 100 kPa, x1 = 0.25	0.4635
313.15 K, 100 kPa, x1 = 0.299	0.5061
313.15 K, 100 kPa, x1 = 0.351	0.5395
313.15 K, 100 kPa, x1 = 0.4	0.5598
313.15 K, 100 kPa, x1 = 0.449	0.5716
313.15 K, 100 kPa, x1 = 0.499	0.5732
313.15 K, 100 kPa, x1 = 0.549	0.5667
313.15 K, 100 kPa, x1 = 0.6	0.5459
313.15 K, 100 kPa, x1 = 0.651	0.5157
313.15 K, 100 kPa, x1 = 0.699	0.4762
313.15 K, 100 kPa, x1 = 0.751	0.427
313.15 K, 100 kPa, x1 = 0.8	0.368
313.15 K, 100 kPa, x1 = 0.85	0.299
313.15 K, 100 kPa, x1 = 0.899	0.204
313.15 K, 100 kPa, x1 = 0.949	0.108
313.15 K, 1000 kPa, x1 = 0.049	0.127
313.15 K, 1000 kPa, x1 = 0.099	0.238
313.15 K, 1000 kPa, x1 = 0.149	0.331
313.15 K, 1000 kPa, x1 = 0.199	0.406
313.15 K, 1000 kPa, x1 = 0.25	0.4659
313.15 K, 1000 kPa, x1 = 0.299	0.5082
313.15 K, 1000 kPa, x1 = 0.35	0.5426
313.15 K, 1000 kPa, x1 = 0.399	0.5625
313.15 K, 1000 kPa, x1 = 0.449	0.572
313.15 K, 1000 kPa, x1 = 0.499	0.5728
313.15 K, 1000 kPa, x1 = 0.549	0.5639
313.15 K, 1000 kPa, x1 = 0.6	0.5428
313.15 K, 1000 kPa, x1 = 0.651	0.5125
313.15 K, 1000 kPa, x1 = 0.699	0.4734
313.15 K, 1000 kPa, x1 = 0.751	0.4239
313.15 K, 1000 kPa, x1 = 0.8	0.368
313.15 K, 1000 kPa, x1 = 0.849	0.296
313.15 K, 1000 kPa, x1 = 0.899	0.206
313.15 K, 1000 kPa, x1 = 0.949	0.105
313.15 K, 10000 kPa, x1 = 0.049	0.124
313.15 K, 10000 kPa, x1 = 0.101	0.24
313.15 K, 10000 kPa, x1 = 0.151	0.332
313.15 K, 10000 kPa, x1 = 0.202	0.405
313.15 K, 10000 kPa, x1 = 0.249	0.4604
313.15 K, 10000 kPa, x1 = 0.3	0.5061
313.15 K, 10000 kPa, x1 = 0.349	0.5364
313.15 K, 10000 kPa, x1 = 0.401	0.5586
313.15 K, 10000 kPa, x1 = 0.451	0.5694
313.15 K, 10000 kPa, x1 = 0.501	0.5711
313.15 K, 10000 kPa, x1 = 0.551	0.5597
313.15 K, 10000 kPa, x1 = 0.602	0.5408
313.15 K, 10000 kPa, x1 = 0.65	0.513
313.15 K, 10000 kPa, x1 = 0.75	0.4247
313.15 K, 10000 kPa, x1 = 0.799	0.368
313.15 K, 10000 kPa, x1 = 0.849	0.293
313.15 K, 10000 kPa, x1 = 0.899	0.21
313.15 K, 10000 kPa, x1 = 0.949	0.105
328.15 K, 1000 kPa, x1 = 0.05	0.129
328.15 K, 1000 kPa, x1 = 0.1	0.243
328.15 K, 1000 kPa, x1 = 0.15	0.341
328.15 K, 1000 kPa, x1 = 0.2	0.418
328.15 K, 1000 kPa, x1 = 0.25	0.4826
328.15 K, 1000 kPa, x1 = 0.3	0.531
328.15 K, 1000 kPa, x1 = 0.35	0.5685
328.15 K, 1000 kPa, x1 = 0.4	0.5957
328.15 K, 1000 kPa, x1 = 0.45	0.6082
328.15 K, 1000 kPa, x1 = 0.5	0.6094
328.15 K, 1000 kPa, x1 = 0.55	0.602
328.15 K, 1000 kPa, x1 = 0.6	0.5832
328.15 K, 1000 kPa, x1 = 0.65	0.5542
328.15 K, 1000 kPa, x1 = 0.7	0.513
328.15 K, 1000 kPa, x1 = 0.75	0.4578
328.15 K, 1000 kPa, x1 = 0.8	0.3918
328.15 K, 1000 kPa, x1 = 0.85	0.3191
328.15 K, 1000 kPa, x1 = 0.9	0.2231
328.15 K, 1000 kPa, x1 = 0.95	0.114

CCC(C)O (centres undefined) [butan-2-ol] + COC(=O)OC
Details	excess molar enthalpy [kcal/mol]
298.15 K, 1000 kPa, x2 = 0.05	0.126
298.15 K, 1000 kPa, x2 = 0.1	0.237
298.15 K, 1000 kPa, x2 = 0.15	0.328
298.15 K, 1000 kPa, x2 = 0.2	0.4
298.15 K, 1000 kPa, x2 = 0.25	0.459
298.15 K, 1000 kPa, x2 = 0.3	0.5033
298.15 K, 1000 kPa, x2 = 0.35	0.5352
298.15 K, 1000 kPa, x2 = 0.4	0.5549
298.15 K, 1000 kPa, x2 = 0.45	0.5664
298.15 K, 1000 kPa, x2 = 0.5	0.568
298.15 K, 1000 kPa, x2 = 0.55	0.5595
298.15 K, 1000 kPa, x2 = 0.6	0.5407
298.15 K, 1000 kPa, x2 = 0.65	0.5126
298.15 K, 1000 kPa, x2 = 0.7	0.4758
298.15 K, 1000 kPa, x2 = 0.75	0.43
298.15 K, 1000 kPa, x2 = 0.8	0.3661
298.15 K, 1000 kPa, x2 = 0.9	0.2152
298.15 K, 1000 kPa, x2 = 0.95	0.1148
313.15 K, 100 kPa, x2 = 0.051	0.124
313.15 K, 100 kPa, x2 = 0.102	0.238
313.15 K, 100 kPa, x2 = 0.148	0.323
313.15 K, 100 kPa, x2 = 0.202	0.412
313.15 K, 100 kPa, x2 = 0.251	0.4757
313.15 K, 100 kPa, x2 = 0.352	0.5707
313.15 K, 100 kPa, x2 = 0.4	0.6006
313.15 K, 100 kPa, x2 = 0.45	0.6191
313.15 K, 100 kPa, x2 = 0.501	0.6252
313.15 K, 100 kPa, x2 = 0.551	0.6211
313.15 K, 100 kPa, x2 = 0.6	0.6077
313.15 K, 100 kPa, x2 = 0.649	0.5813
313.15 K, 100 kPa, x2 = 0.701	0.5413
313.15 K, 100 kPa, x2 = 0.749	0.4921
313.15 K, 100 kPa, x2 = 0.799	0.426
313.15 K, 100 kPa, x2 = 0.849	0.345
313.15 K, 100 kPa, x2 = 0.899	0.248
313.15 K, 100 kPa, x2 = 0.951	0.128
313.15 K, 1000 kPa, x2 = 0.051	0.127
313.15 K, 1000 kPa, x2 = 0.098	0.234
313.15 K, 1000 kPa, x2 = 0.149	0.328
313.15 K, 1000 kPa, x2 = 0.198	0.411
313.15 K, 1000 kPa, x2 = 0.251	0.4777
313.15 K, 1000 kPa, x2 = 0.348	0.5696
313.15 K, 1000 kPa, x2 = 0.4	0.5987
313.15 K, 1000 kPa, x2 = 0.451	0.6176
313.15 K, 1000 kPa, x2 = 0.501	0.6242
313.15 K, 1000 kPa, x2 = 0.551	0.6223
313.15 K, 1000 kPa, x2 = 0.6	0.6059
313.15 K, 1000 kPa, x2 = 0.649	0.5827
313.15 K, 1000 kPa, x2 = 0.701	0.542
313.15 K, 1000 kPa, x2 = 0.749	0.4932
313.15 K, 1000 kPa, x2 = 0.799	0.426
313.15 K, 1000 kPa, x2 = 0.85	0.346
313.15 K, 1000 kPa, x2 = 0.899	0.248
313.15 K, 1000 kPa, x2 = 0.951	0.126
313.15 K, 10000 kPa, x2 = 0.051	0.135
313.15 K, 10000 kPa, x2 = 0.1	0.248
313.15 K, 10000 kPa, x2 = 0.15	0.344
313.15 K, 10000 kPa, x2 = 0.2	0.425
313.15 K, 10000 kPa, x2 = 0.25	0.4896
313.15 K, 10000 kPa, x2 = 0.301	0.5404
313.15 K, 10000 kPa, x2 = 0.35	0.5784
313.15 K, 10000 kPa, x2 = 0.399	0.6045
313.15 K, 10000 kPa, x2 = 0.451	0.6203
313.15 K, 10000 kPa, x2 = 0.501	0.6251
313.15 K, 10000 kPa, x2 = 0.551	0.6178
313.15 K, 10000 kPa, x2 = 0.599	0.6019
313.15 K, 10000 kPa, x2 = 0.65	0.5699
313.15 K, 10000 kPa, x2 = 0.751	0.4739
313.15 K, 10000 kPa, x2 = 0.801	0.413
313.15 K, 10000 kPa, x2 = 0.851	0.335
313.15 K, 10000 kPa, x2 = 0.901	0.238
313.15 K, 10000 kPa, x2 = 0.949	0.127
328.15 K, 1000 kPa, x2 = 0.05	0.128
328.15 K, 1000 kPa, x2 = 0.1	0.244
328.15 K, 1000 kPa, x2 = 0.15	0.345
328.15 K, 1000 kPa, x2 = 0.201	0.428
328.15 K, 1000 kPa, x2 = 0.25	0.496
328.15 K, 1000 kPa, x2 = 0.302	0.5534
328.15 K, 1000 kPa, x2 = 0.352	0.5928
328.15 K, 1000 kPa, x2 = 0.402	0.6206
328.15 K, 1000 kPa, x2 = 0.45	0.6375
328.15 K, 1000 kPa, x2 = 0.502	0.6437
328.15 K, 1000 kPa, x2 = 0.551	0.6361
328.15 K, 1000 kPa, x2 = 0.603	0.6173
328.15 K, 1000 kPa, x2 = 0.653	0.5904
328.15 K, 1000 kPa, x2 = 0.7	0.5518
328.15 K, 1000 kPa, x2 = 0.751	0.496
328.15 K, 1000 kPa, x2 = 0.802	0.4279
328.15 K, 1000 kPa, x2 = 0.9	0.2527
328.15 K, 1000 kPa, x2 = 0.95	0.1345
